The record followed here is patent publication US20080306131A1, “Progesterone receptor modulator and uses thereof” (Wyeth, priority 2007, published 2008).

Where two headings read alike, the source gives them in different places.

The assay concerns the target T1, progesterone receptors (PR) (Homo sapiens, UniProt P06401).
T1 sequence (P06401 1-933): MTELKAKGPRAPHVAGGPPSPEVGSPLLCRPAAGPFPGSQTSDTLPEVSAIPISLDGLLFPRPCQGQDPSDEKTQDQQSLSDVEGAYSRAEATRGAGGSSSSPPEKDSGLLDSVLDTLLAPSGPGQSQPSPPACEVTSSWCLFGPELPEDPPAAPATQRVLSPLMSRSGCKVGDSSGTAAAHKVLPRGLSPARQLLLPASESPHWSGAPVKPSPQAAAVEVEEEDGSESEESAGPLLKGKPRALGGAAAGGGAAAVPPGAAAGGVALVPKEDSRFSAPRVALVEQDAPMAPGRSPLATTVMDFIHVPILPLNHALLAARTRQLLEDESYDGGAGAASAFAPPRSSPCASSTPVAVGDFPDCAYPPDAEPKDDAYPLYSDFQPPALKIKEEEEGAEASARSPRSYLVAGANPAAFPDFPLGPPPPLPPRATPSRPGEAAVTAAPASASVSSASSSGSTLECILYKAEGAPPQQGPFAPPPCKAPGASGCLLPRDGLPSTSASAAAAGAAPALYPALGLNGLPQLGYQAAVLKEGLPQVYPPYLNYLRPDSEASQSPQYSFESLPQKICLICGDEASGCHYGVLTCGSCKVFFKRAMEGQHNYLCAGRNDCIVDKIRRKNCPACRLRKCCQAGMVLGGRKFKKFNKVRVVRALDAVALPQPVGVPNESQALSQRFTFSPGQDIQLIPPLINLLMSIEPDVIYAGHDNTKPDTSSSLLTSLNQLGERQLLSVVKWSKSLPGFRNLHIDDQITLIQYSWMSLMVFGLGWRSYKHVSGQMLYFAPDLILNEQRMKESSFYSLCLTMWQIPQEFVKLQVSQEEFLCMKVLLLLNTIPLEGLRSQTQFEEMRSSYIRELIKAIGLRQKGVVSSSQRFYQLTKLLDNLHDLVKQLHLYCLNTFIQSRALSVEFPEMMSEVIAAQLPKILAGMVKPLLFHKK
The assay is described as follows: PRE luciferase reporter assay and Quantigene branched DNA assay (TF, PPL) for progestin activity in T47D cells. Type of assay: cell-based. The note with it: read-out: efficacies (percentage of the maximum P4 response). On the procedure:
Progestin activity was measured using a common luciferase reporter system in cells expressing endogenous progesterone receptors (PR). T47D breast cancer cells were plated at 50,000 cells/well in 96 well plates in DMEM/F-12 supplemented with penicillin/streptomycin, Glutamax and 5% FBS (Gibco). Cells were infected with a 1:1000 dilution of an adenovirus vector expressing luciferase under the control of three copies of a consensus progesterone receptor regulatory element (PRE) located in the promoter region. Following a two-hour post-infection recovery, cells were treated for 20 hours with progesterone (P4) or test compounds. Luciferase reporter activity was quantified using the Luciferase Assay System (Promega) and a Victor2 luminometer (Perkin Elmer).
T47D cells were plated as in the PRE assay and treated with compound for 15 hours. Expression of tissue factor (TF), a PR-β isoform regulated gene, or periplakin (PPL), a PR-A regulated gene, was measured by the Quantigene branched DNA assay (Genospectra) using the Victor2 luminometer following the manufacturer's recommended protocol.
EC50 values were determined using the dose response nonlinear fit model from the SAS statistics package (SAS Institute Inc). Efficacies were calculated as a percentage of the maximum P4 response.
On the technique in general: Reporter assays use an easily measured gene product as a stand-in for the process of interest.

For the molecule `CC1(C)C(=O)C=CC2(C)C3(C)c4[nH]c5ccccc5c4CC3CCC12O` (centres unmarked) [4a-hydroxy-4,4,12b,12c-tetramethyl-4a,5,6,6a,7,12,12b,12c-octahydrobenzo[6,7]indeno[1,2-b]indol-3(4H)-one], the Emax (T47D) was less than 1%.
Regarding `CO[C@H]1[C@H](O)[C@@H](O)[C@@H](Oc2ccc3c4c([nH]c3c2)[C@]2(C)[C@H](CC[C@@H]3C(C)(C)C(=O)C=C[C@]32C)C4)O[C@@H]1CO` [(4aS,6aR,12bR,12cR)-4,4,12b,12c-tetramethyl-3-oxo-3,4,4a,5,6,6a,7,12,12b,12c-decahydrobenzo[6,7]indeno[1,2-b]indol-10-yl 4-O-methyl-α-D-glucopyranoside], the Emax (T47D breast cancer cells, percentage of maximum progesterone (P4) response, the text does not say which assay (PRE luciferase, TF, PPL) each value comes from) is less than 1%.
